This data set can be described thus: In vitro release study of EVE-PLGA microsphere (sample-and-separate method). It is filed as physicochemical. To be noted: during in vitro release study, release medium pH 7.4, 37° C. How it is done: The in vitro release study was carried out by a sample-and-separate method. Briefly, 20 mg of microsphere sample (n=3) was taken in a 100 mL flask and dispersed in 50 mL of release medium (0.5% Tween 20 and 0.1% sodium azide in phosphate buffered saline (PBS) at pH 7.4). The flasks were placed in an orbital agitating incubator at 37° C. and shaken at 100 rpm. At certain time points (E10PA53 at 1, 3, 7, 14, 21, 28, 35, 42, 49, 56 days and E10PE77 at 1, 3, 7, 14, 21, 28, 35, 42, 49, 56, 63, 70, 77, 84, 91 days), all medium was collected and filtered on filter paper. The filtered pellet was freeze-dried for 24 h and dissolved in acetonitrile. The content of the unreleased EVE was then analyzed by HPLC as described above. Since EVE was known to be degradable in aqueous solution as a free form in a time-dependent manner, the EVE content was analyzed in the microsphere residue.
The microspheres were also prepared using a membrane with a pore size of 50 μm, which produced microspheres having a diameter size larger than 75 μm. To analyze the release behavior of EVE from the microspheres, an in vitro release study was performed by a sample-and-separate method at physiological conditions. […] The content of EVE was determined in the remaining microsphere after collecting whole samples at certain time points to avoid degradation-related loss of EVE in an aqueous environment.

This note sets out measurements from patent US12396951B2, “Prevention of local tumor recurrence following surgery using sustainedand/or delayed release of medicaments contained in micro-particles” (UPEXMED CO. LTD., priority 2016, dated 2025).

On to `CO[C@H]1C[C@@H]2CC[C@@H](C)[C@@](O)(O2)C(=O)C(=O)N2CCCC[C@H]2C(=O)O[C@H]([C@H](C)C[C@@H]2CC[C@@H](OCCO)[C@H](OC)C2)CC(=O)[C@H](C)/C=C(\C)[C@@H](O)[C@@H](OC)C(=O)[C@H](C)C[C@H](C)/C=C/C=C/C=C/1C` [EVE, everolimus], for which the “stability of EVE in the microsphere” value was “no change in the stability”.
